Laboratory results published in patent US20250177473A1, “PEPTIDE REGULATORS OF METABOLISM” (Metabico, Inc., priority 2022, published 2025).

Tested on: M67 (Stat1/Stat3) luciferase reporter
Assay: M67 (Stat1/Stat3) luciferase reporter in HepG2 cells
Type: cell-based, human
Settings: 16 hours; for Stat3 (M67) reporter activity with three PPAR antagonists: GW 6471 + T0070907 + GSK3787 applied together with EPSI 0.05 mg/mL; for effect of co-applied inhibitor/antagonist on EPSI-induced M67 reporter activation: EPSI 0.05 mg/mL + inhibitor (pravastatin 10 μM; SC144; NF 449)
Protocol: Luciferase reporters used in the study: • M67 luciferase reporter.
The use of Stat1 inhibitor is required to distinguish the effects of Stat1 and Stat3.
HepG2 human hepatocyte carcinoma cell line (HB-8065, ATCC, USA).
HepG2 cells were cultured in a complete DMEM medium containing 15% FBS.
HepG2 cells were electroporated with 10 μg of purified plasmid DNA and 0.1 μg of pRL-CMV Renilla luciferase control reporter vector (Promega, Madison, WI, USA) using the Neon Transfection System (Thermo Fisher Scientific, Waltham, MA, USA) and the following regimens: three 20 ms 1230 V pulses.
Luciferase activity was measured in Luminometer 20/20n (TurnerBioSystems, Sunnwale, USA) using Dual-Luciferase Reporter Assay System (Promega, Madison, USA) following the manufacturer's protocol.
DY 268 (Tocris Cat. No. 5656) • PPAR-alpha: GW 6471 (Tocris, Cat. No. 4618) • PPAR-gamma: T0070907 (Selleck Chemicals, Catalog No. S2871) • PPAR-delta: GSK3787 (Selleck Chemicals, Catalog No. S8025) • LEPR.
HepG2 cells were electroporated with 10 μg of purified plasmid DNA of M67 reporter and 0.1 μg of pRL-CMV Renilla luciferase control reporter vector (Promega, Madison, WI, USA) using the Neon Transfection System (Thermo Fisher Scientific, Waltham, MA, USA) and the following regimens: three 20 ms 1230 V pulses.
Detection of luciferase signals was performed 16 hours after the compounds' application. Luciferase activity was measured in Luminometer 20/20n (TurnerBioSystems, Sunnwale, USA) using Dual-Luciferase Reporter Assay System (Promega, Madison, USA) following the manufacturer's protocol.

Row | Compound | Stat3 (M67) reporter activity with three PPAR antagonists | effect of co-applied inhibitor/antagonist on EPSI-induced M67 reporter activation
1 | O=C(Nc1ccncc1)c1cc([N+](=O)[O-])ccc1Cl [T0070907] | significant induction | 
2 | CCC(=O)NC[C@H](Cc1ccc(OCCc2nc(-c3ccccc3)oc2C)cc1)N/C(C)=C\C(=O)c1ccc(C(F)(F)F)cc1 [GW 6471] | significant induction | 
3 | O=C(Nc1cc(C(=O)Nc2ccc(S(=O)(=O)O)cc2S(=O)(=O)O)cc(C(=O)Nc2ccc(S(=O)(=O)O)cc2S(=O)(=O)O)c1)Nc1cc(C(=O)Nc2ccc(S(=O)(=O)O)cc2S(=O)(=O)O)cc(C(=O)Nc2ccc(S(=O)(=O)O)cc2S(=O)(=O)O)c1 [NF 449] |  | partially inversed
4 | O=C(NCCS(=O)(=O)c1ccc(C(F)(F)F)cn1)c1ccc(Cl)cc1 [GSK3787] | significant induction | 
5 | O=C(NNc1nc2cc(F)ccc2n2cccc12)c1cnccn1 [SC144] |  | partially inversed
